Assay results reported in patent publication US20130310347A1, “MULTI-MODALITY MOLECULAR IMAGING HIGH-THROUGHPUT ASSAY FOR IDENTIFYING HEAT SHOCK PROTEIN 90 (HSP90) INHIBITORS” (The Board of Trustees of the Leland Stanford Junior …, priority 2012, published 2013).

Experiments:
[1] = system: Hsp90 client proteins (Raf-1, total and phosphorylated Akt); assay: Western blotting of Hsp90 client proteins in 293T cells; format: cell-based, human; details: 5 μM, 24 h
Procedure: FIG. 5A is a digital image of a western blot analysis illustrating the effect of lead compounds on the expression of Hsp90 client proteins. 293T cells stably expressing Hsp90(α/β)/p23 split reporters were treated with carrier control or compounds CP1, CP9, or CP18 (5 μM each) for 24 h. The known Hsp90 inhibitor PU-H71 (2 μM) was used as a positive control. The expression of Hsp90 client proteins (Raf-1, total and phosphorylated Akt) was determined by western blotting. α-Tubulin was used as a loading control.
Cells treated with PU-H71 (2 μM) served as a positive control.
Cells treated with 2 μM of PU-H71 served as a positive control. Western blotting of Hsp70, phosphorylated and total Akt and co-immunoprecipitation of Hsp90(α/β)/p23 interactions was performed as described Inglese et al., (2006) Proc. Nat. Acad. Sci. U.S.A. 103: 11473-11478, incorporated herein by reference in its entirety. The expression of Raf-1 was determined using rabbit polyclonal antibodies against Raf-1 (0.5 μg/ml, Abcam).

Hsp90α/p23 interactions [2] = target: T1, Hsp90α/p23 interactions (Homo sapiens, UniProt P07900); assay: RL/FL bioluminescence imaging of 293T xenografts in living mice; format: in vivo; details: CP9 80 mg/kg i.p.
T1 construct: expressed in transfected cells; also with FL-eGFP reporter (293Tα-FG) and as xenografts in nude mice
Procedure: Maximum radiance (photons/sec/cm^2/sr) from RL signals was normalized to that of FL signals at each site and at each time point to account for the effect of CP9 on cell proliferation. The RL/FL ratios were normalized to that of time 0 h to monitor the individual change in Hsp90(α/β)/p23 interactions in each mouse over time. Results were expressed as mean±S.E.M for the control and treatment groups for Hsp90α/p23 (left panel) and Hsp90β/p23 interactions (right panel).
To monitor the inhibition of Hsp90(α/β)/p23 interactions by CP9 in living mice, a second reporter (FL-eGFP) was introduced into the 293T cells stably expressing Hsp90(α/β)/p23 split RL reporters (now referred as 293T(α/β)—FG cells). Although ^18F-FLT has also been used to monitor tumor cell proliferation in small animals by PET (Tseng et al., (2005) J. Nucl. Med. 46: 1851-1857), FL imaging was used because of the higher sensitivity and ease of performing sequentially with RL imaging for Hsp90(α/β)/p23 interactions. […] Baseline RL and FL signals in each implanted tumor were determined upon i.v. substrate injection.
Based on experience with the Hsp90 inhibitors 17-AAG and PU-H71, CP9 (80 mg/kg) (n=5) was tested in animal experiments by i.p. injection with four doses at […] post baseline imaging (FIG. 7A). An equal volume of DMSO was injected into the carrier control group (n=5, FIG. 7B). Mice treated with 75 mg/kg PU-H71 (n=2) served as positive controls. Mice were re-imaged for Hsp90(α/β)/p23 interactions and cell proliferation via RL (FIG. 5B, left panels) and FL (FIG. 5B, right panels) imaging at the time points indicated, respectively. To account for the effect of cell number on Hsp90(α/β)/p23 interactions, RL signals were normalized to FL signals for each tumor at each time point, prior to normalization to that of time 0 h.
Mice were gas anesthetized using isofluorane (2% in 100% oxygen, 1 L/min) during all injection and imaging procedures and kept at 37° C. Mice were imaged using a cooled CCD camera (IVIS 200, Caliper Life Sciences, Mountain View, Calif.). […] Baseline RL activities in the implanted tumors in living mice were determined by i.v. injection of 30 μg cltz (in 150 μl of 5% ethanol: 95% PBS) and image acquisition of 3 mins. After a 30 mins wait for RL signals to decay, FL activities were determined by i.v. injection of 163 μg of D-Luc in 100 μl PBS with image acquisition of 10 sequences for 15 sec each to obtain the peak max radiance. […] Maximum radiance of RL was divided by that of FL signals at each time point, prior to normalization to that of time 0 hr for each individual mouse, and expressed as average radiance±S.E.M for each treatment group.

Hsp90α/p23 interactions [3] = target: T1, Hsp90α/p23 interactions; assay: CP9 analogue evaluation, RL/FL imaging in 293Tα-FG cells; format: cell-based; details: time- and dose-response curves in 293T-FG cells; read-out: IC50 for inhibition of Hsp90α/p23 signals
Procedure: To improve the efficacy of CP9 in disruption of Hsp90(α/β)/p23 interactions in living mice, a structure-activity relationship (SAR) study was performed using 62 structural analogues (10 μM) with different modifications on CP9, as shown in FIGS. 2A-2G, using the 293T(α/β)-FG stable cells. Their effects on Hsp90(α/β)/p23 interactions and cell proliferation were monitored by sequential RL (FIG. 11A) and FL imaging at 24 h. CP9, PU-H71 and 17-AAG were used as positive controls. The net effect on Hsp90(α/β)/p23 interactions was determined by normalizing RL to that of FL signals and to that of carrier control-treated cells (FIG. 11B).
The IC50 for growth inhibition by A17 was about 2-fold lower than that of CP9 (FIG. 12A).
CP9 (0.3-10 μM), 17-AAG (10 μM) and PU-H71 (5 μM) were used as positive controls in triplicate wells. The efficacy of the analogues in disruption of Hsp90(α/β)/p23 and cell proliferation were monitored by RL imaging (2 h post upon addition of ENDUREN® at 30 μM final concentration) followed by FL imaging (10 mins post addition of D-Luc at 0.225 mg/ml final concentration) using a cooled CCD camera (1 min and 10 sec for RL and FL imaging, respectively). […] The effect of the CP9 analogues on degradation of Hsp90 client proteins in 293T cells were also monitored by western blotting as described above.

- RL/FL ratio in Hsp90α/p23 xenografts, normalized to time 0 h (Hsp90α/p23 interactions [2]; 14 h): 122±39%
- RL/FL ratio in Hsp90α/p23 xenografts, normalized to time 0 h (Hsp90α/p23 interactions [2]; 38 h, p<0.05 vs carrier control): 79±19%
- IC50 (Hsp90α/p23 interactions [3]): 450 nM
SMILES: Cc1cc(NC(=O)CSc2nc(-c3cccs3)cc(C(F)(F)F)n2)no1 [CP9, N-(5-methylisoxazol-3-yl)-2-(4-(thiophen-2-yl)-6-(trifluoromethyl)pyrimidin-2-ylthio)acetamide]
- levels of Hsp90 client proteins (pAkt/total Akt, Raf-1) [1]: more effective than CP18
